Test systems include OVCAR-8; SF-539; OVCAR-5; UO-31; SNB-75; HCT-116; UACC-62; CCRF-CEM; NCI-H23; RPMI-8226; BT-549; SK-MEL-28; Malme-3M; MDA-MB-435; IGROV-1; HOP-92; HL-60.
What all share (assay): NCI anticancer screen, dose series, 48 h

These results are taken from ChEMBL document CHEMBL1201862, “PubChem BioAssay data set” (2004).

Structures are written as SMILES.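 Dose response: 5 concentrations. Exposure: 48 h. Format: 96-well plates. Endpoint: linear interpolation; highest concentration if not reached. GI50: concentration for 50% inhibition of growth.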 Activity calls are given as the source filed them. Rule as the data show it: active = GI50 up to about 1.1 µM and inactive = higher.

In the case of `CC1(C)C2CCC1(C)C(N/C(=C(/C(Cl)=C(Cl)Cl)[N+](=O)[O-])n1nnc3ccccc31)C2` (stereo not drawn), the GI50 was 29.1 µM (inactive) with OVCAR-8; 33.8 µM (inactive) with SF-539; 29.2 µM (inactive) with OVCAR-5; 21 µM (inactive) in the assay with UO-31; 28 µM (inactive) with SNB-75; 43 µM (inactive) in the assay on HCT-116. The GI50 in the assay on UACC-62 was 20 µM (inactive); in the assay with CCRF-CEM it was 21 µM (inactive); with NCI-H23, 22.4 µM (inactive); with RPMI-8226, 25.7 µM (inactive); in the assay on BT-549 it was 22.2 µM (inactive); with SK-MEL-28, 36.7 µM (inactive). Also, the GI50 in the assay with Malme-3M is 19.3 µM (inactive); in the assay with MDA-MB-435, 21.4 µM (inactive).

With `CN(C)c1ccc(C2CC(c3ccc4ccccc4c3O)=NN2c2ccc([N+](=O)[O-])cc2[N+](=O)[O-])cc1` (stereo not drawn), the GI50 in the assay with OVCAR-8 was 56 µM (inactive); with IGROV-1, 26.2 µM (inactive); with SF-539 it was 50.9 µM (inactive); with OVCAR-5, > 100 µM (inactive); in the assay on UO-31 it was 27.4 µM (inactive); in the assay on SNB-75, > 100 µM (inactive). Besides, the GI50 in the assay on HCT-116 is 37.5 µM (inactive); in the assay on UACC-62, 14.3 µM (inactive); in the assay with CCRF-CEM, 22.3 µM (inactive); in the assay on NCI-H23, 17 µM (inactive); with BT-549, 91 µM (inactive); with HOP-92, > 100 µM (inactive). The GI50 with SK-MEL-28 is 56 µM (inactive); in the assay with Malme-3M it was 19.2 µM (inactive); in the assay with MDA-MB-435 it was 17.5 µM (inactive).

Take `S=C(Nc1ccc(/N=N/c2ccccc2)cc1)SCc1ccccc1`: the GI50 is 7.35 µM (inactive) in the assay with OVCAR-8; 17.7 µM (inactive) in the assay with IGROV-1; 18.4 µM (inactive) in the assay on SF-539; 18.8 µM (inactive) in the assay with UO-31; 18.4 µM (inactive) in the assay on SNB-75; 14.8 µM (inactive) in the assay with HCT-116. Further, the GI50 was 17.8 µM (inactive) with UACC-62; 15.9 µM (inactive) in the assay with CCRF-CEM; 16.4 µM (inactive) in the assay with NCI-H23; 5.04 µM (inactive) in the assay on RPMI-8226; 18.3 µM (inactive) in the assay on BT-549; 13.4 µM (inactive) in the assay with HOP-92. For the same compound, the GI50 was 18.1 µM (inactive) in the assay on SK-MEL-28, 11 µM (inactive) in the assay with Malme-3M and 16.2 µM (inactive) with MDA-MB-435.

As to `COC(=O)C1=C(C(=O)NNc2ccccc2)N(c2cccnc2Cl)C(c2ccccc2)=CC1c1ccccc1` (stereo not drawn), the GI50 with OVCAR-8 is > 100 µM (inactive); in the assay on HL-60, 37.2 µM (inactive); with IGROV-1, > 100 µM (inactive); in the assay with SF-539, 72.4 µM (inactive); with OVCAR-5 it was > 100 µM (inactive); in the assay on SNB-75 it was > 100 µM (inactive). Moreover, the GI50 in the assay with HCT-116 was 23.7 µM (inactive); in the assay with UACC-62 it was 57.7 µM (inactive); in the assay on CCRF-CEM, 27.7 µM (inactive); with NCI-H23, 73.8 µM (inactive); with RPMI-8226 it was 14.1 µM (inactive); with BT-549, 56.8 µM (inactive). Further, the GI50 in the assay on SK-MEL-28 is 48.2 µM (inactive); with Malme-3M, 27.8 µM (inactive); in the assay with MDA-MB-435 it was 29.5 µM (inactive).

With `C=CCc1ccccc1CC1(OCC)OC(=O)c2ccccc21` (stereo not drawn), the GI50 in the assay on OVCAR-8 is > 100 µM (inactive); with IGROV-1 it was > 100 µM (inactive); in the assay on SF-539 it was > 100 µM (inactive); in the assay on OVCAR-5, > 100 µM (inactive); in the assay on UO-31, > 100 µM (inactive); in the assay with SNB-75 it was 0.0259 µM (active). Besides, the GI50 is 41.2 µM (inactive) with HCT-116; > 100 µM (inactive) in the assay with UACC-62; 56.5 µM (inactive) in the assay on NCI-H23; 17 µM (inactive) in the assay on RPMI-8226; 96.8 µM (inactive) in the assay with BT-549; 33.8 µM (inactive) with HOP-92. The GI50 was > 100 µM (inactive) in the assay with SK-MEL-28 and 28.8 µM (inactive) with MDA-MB-435.

For the compound `CN1Cc2ccccc2/C=C\c2ccccc21`, the GI50 in the assay on OVCAR-8 was > 100 µM (inactive); with IGROV-1, > 100 µM (inactive); with SF-539 it was > 100 µM (inactive); in the assay with UO-31 it was 80.2 µM (inactive); in the assay with SNB-75, 65.6 µM (inactive); with HCT-116 it was 78.2 µM (inactive). Further, the GI50 with UACC-62 is 60.8 µM (inactive); in the assay on CCRF-CEM, 47.3 µM (inactive); in the assay on NCI-H23, 62.1 µM (inactive); in the assay on RPMI-8226, 25.4 µM (inactive); in the assay with BT-549 it was 70 µM (inactive); in the assay with HOP-92 it was 28 µM (inactive). Also, the results for the GI50 in the assay with SK-MEL-28, in the assay on Malme-3M and with MDA-MB-435 were > 100 µM (inactive), 51.4 µM (inactive) and 39.8 µM (inactive), respectively.

For `O=C1Nc2nnc(S)n2NC12c1ccccc1-c1ccccc12`, the GI50 was > 100 µM (inactive) in the assay with OVCAR-8; > 100 µM (inactive) in the assay with HL-60; 96.6 µM (inactive) in the assay with IGROV-1; > 100 µM (inactive) in the assay on SF-539; > 100 µM (inactive) in the assay on OVCAR-5; > 100 µM (inactive) in the assay with UO-31. Also, the GI50 in the assay on SNB-75 was > 100 µM (inactive); in the assay with HCT-116 it was 24.2 µM (inactive); in the assay with UACC-62, 22.4 µM (inactive); with NCI-H23 it was > 100 µM (inactive); with BT-549, > 100 µM (inactive); in the assay with HOP-92, > 100 µM (inactive). The GI50 was > 100 µM (inactive) in the assay with SK-MEL-28, > 100 µM (inactive) with Malme-3M and 16.8 µM (inactive) in the assay with MDA-MB-435.

Consider `CC(=O)C1C(=O)C(=O)N(c2cccc([N+](=O)[O-])c2)C1=O` (stereo not drawn), for which the GI50 with OVCAR-8, with HL-60, with IGROV-1, with SF-539, with OVCAR-5 and in the assay on UO-31 was > 100 µM (inactive) each time. Moreover, the GI50 in the assay with SNB-75, in the assay on HCT-116, in the assay with UACC-62, with CCRF-CEM, in the assay with NCI-H23 and in the assay on BT-549 was > 100 µM (inactive) in each case. In addition, the GI50 with HOP-92, in the assay with SK-MEL-28 and with MDA-MB-435 was > 100 µM (inactive) in each case.

Consider `O=c1cc(C(F)(F)F)c2cc3c(cc2o1)NCCC3`, for which the GI50 with OVCAR-8 was 42.2 µM (inactive); in the assay with HL-60, > 100 µM (inactive); in the assay with IGROV-1, 97.3 µM (inactive); with SF-539, > 100 µM (inactive); in the assay on OVCAR-5 it was > 100 µM (inactive); in the assay on UO-31 it was 61.1 µM (inactive). In addition, the GI50 with HCT-116 was 28.8 µM (inactive); in the assay on CCRF-CEM, > 100 µM (inactive); in the assay on NCI-H23 it was > 100 µM (inactive); in the assay on RPMI-8226, > 100 µM (inactive); in the assay on BT-549, > 100 µM (inactive); in the assay with HOP-92 it was 46.1 µM (inactive). Moreover, the GI50 in the assay on SK-MEL-28, in the assay with Malme-3M and with MDA-MB-435 was > 100 µM (inactive) in each case.

On to `CC(C)(C)OC(=O)Nc1nnc(S(N)(=O)=O)s1`, for which the GI50 in the assay with OVCAR-8, in the assay with HL-60, with SF-539, with OVCAR-5, with UO-31 and with HCT-116 was > 100 µM (inactive) in each case. Besides, the GI50 with UACC-62, in the assay with CCRF-CEM, in the assay with NCI-H23, in the assay on RPMI-8226, in the assay on BT-549 and with HOP-92 was > 100 µM (inactive) each time. Also, the GI50 in the assay on SK-MEL-28, in the assay with Malme-3M and in the assay with MDA-MB-435 was > 100 µM (inactive) throughout.
